Test system: GFP-SOD1 mutant aggregation, cell imaging
Assay: inhibitors of mutant SOD1 aggregation, cell-based (AID 1613)

SMILES	EC50 [µM]
CO[C@H]1[C@H](O)[C@@H](O[C@H]2CC[C@]3(C=O)C4CC[C@]5(C)[C@@H](C6=CC(=O)OC6)CC[C@]5(O)C4CC[C@@H]3C2)O[C@@H](C)[C@@H]1O (some centres undefined)	5
C[C@H]1O[C@@H](O[C@H]2[C@@H](O)C[C@H](O[C@H]3[C@@H](O)C[C@H](O[C@H]4CC[C@]5(C)C6CC[C@]7(C)[C@@H](C8=CC(=O)OC8)CC[C@]7(O)C6CC[C@@H]5C4)O[C@@H]3C)O[C@@H]2C)C[C@H](O)[C@@H]1O (some centres undefined)	20
CC[C@@]1(O)C(=O)OCc2c1cc1n(c2=O)Cc2cc3ccccc3nc2-1	15
CC(=O)O[C@H]1C[C@H](O[C@H]2[C@@H](O)C[C@H](O[C@H]3[C@@H](O)C[C@H](O[C@H]4CC[C@@]5(C)C(CCC6C5C[C@@H](O)[C@]5(C)[C@@H](C7=CC(=O)OC7)CC[C@]65O)C4)O[C@@H]3C)O[C@@H]2C)O[C@H](C)[C@H]1O[C@@H]1O[C@H](CO)[C@@H](O)[C@H](O)[C@H]1O (some centres undefined)	5
CC(=O)O[C@H]1C(=O)[C@@]2(C)C([C@H](OC(=O)c3ccccc3)[C@]3(O)C[C@H](OC(=O)[C@H](O)[C@@H](NC(=O)c4ccccc4)c4ccccc4)C(C)=C1C3(C)C)[C@]1(OC(C)=O)CO[C@@H]1C[C@@H]2O (some centres undefined)	5
CO[C@H]1[C@H](O)[C@H](O[C@H]2CC[C@]3(C)C4CC[C@]5(C)C(C6=CC(=O)OC6)CC[C@]5(O)C4CC[C@@H]3C2)O[C@@H](C)[C@@H]1O (some centres undefined)	5
COc1ccc(C[C@H]2NC[C@H](O)[C@H]2OC(C)=O)cc1	2
C[C@]12CCC3C(CC[C@]4(O)C[C@@H](O)CC[C@]34C=O)[C@@]1(O)CCC2C1=CC(=O)OC1 (some centres undefined)	5
CCN(CC)CCNc1ccc(CO)c2sc3ccccc3c(=O)c12	20
CC[C@H]1CN2CCc3cc(OC)c(OC)cc3C2C[C@@H]1CC1NCCc2cc(OC)c(OC)cc21 (some centres undefined)	5
C[C@H]1O[C@@H](O[C@H]2[C@@H](O)C[C@H](O[C@H]3[C@@H](O)C[C@H](O[C@H]4CC[C@]5(C)C6C[C@@H](O)[C@]7(C)[C@@H](C8=CC(=O)OC8)CC[C@]7(O)C6CC[C@@H]5C4)O[C@@H]3C)O[C@@H]2C)C[C@H](O)[C@@H]1O (some centres undefined)	20
C[C@@H]1C[C@@H]([C@H](O)CC2CC(=O)NC(=O)C2)C(=O)[C@@H](C)C1	2
O=C1c2c(O)ccc(O)c2C(=O)c2c(NCCNCCO)ccc(NCCNCCO)c21	5
C[n+]1c2cc(N)ccc2cc2ccc(N)cc21	10

From PubChem BioAssay AID1613 (NINDS Approved Drug Screening Program, 2009)
